#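 A five-concentration, 48-hour dose response in 96-well plates underlies each endpoint, interpolated linearly between surrounding concentrations. The concentration for 50% growth inhibition is given as GI50.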 Activity calls are given as the source filed them. Rule as the data show it: active = GI50 up to about 1.1 µM and inactive = higher.
# Columns and labels:
# Assay in all cases: NCI tumour cell line growth inhibition, 48 h
# [1] = system: UACC-257
# [2] = system: SNB-75
# [3] = system: IGROV-1
# [4] = system: T47D
# [5] = system: A549
# [6] = system: SK-MEL-2
# [7] = system: A498
# [8] = system: Malme-3M
# [9] = system: HL-60
# [10] = system: HOP-62
# [11] = system: M14
# [12] = system: Hs-578T
# [13] = system: RXF 393
# [14] = system: NCI-H522
# [15] = system: EKVX
# [16] = system: CCRF-CEM
# [17] = system: HT-29
# [18] = system: MOLT-4
# [19] = system: NCI-H226
# [20] = system: MDA-MB-435
Compound,GI50 [1],GI50 [2],GI50 [3],GI50 [4],GI50 [5],GI50 [6],GI50 [7],GI50 [8],GI50 [9],GI50 [10],GI50 [11],GI50 [12],GI50 [13],GI50 [14],GI50 [15],GI50 [16],GI50 [17],GI50 [18],GI50 [19],GI50 [20]
COc1cc(/C=C2/C[C@H]3[C@@H]4CCC5=CC(=O)CC[C@]5(C)[C@H]4CC[C@]3(C)NC2=O)cc(OC)c1OC,20.7 µM (inactive),15.6 µM (inactive),24.7 µM (inactive),13 µM (inactive),20.6 µM (inactive),24.8 µM (inactive),11.6 µM (inactive),26.7 µM (inactive),13.2 µM (inactive),27.9 µM (inactive),27.4 µM (inactive),23 µM (inactive),12.5 µM (inactive),14.1 µM (inactive),24.5 µM (inactive),20.8 µM (inactive),19.3 µM (inactive),10.2 µM (inactive),28.8 µM (inactive),19.5 µM (inactive)
C=CC(=O)C#Cc1cnc(OC)nc1OC,6.38 µM (inactive),12.6 µM (inactive),22.9 µM (inactive),21.7 µM (inactive),59 µM (inactive),22.1 µM (inactive),34.3 µM (inactive),15.8 µM (inactive),1.09 µM (active),22.8 µM (inactive),14.9 µM (inactive),33.3 µM (inactive),25.2 µM (inactive),6.41 µM (inactive),24.4 µM (inactive),0.515 µM (active),16.1 µM (inactive),1.69 µM (inactive),> 48.5 µM (inactive),16.6 µM (inactive)

# From ChEMBL document CHEMBL1201862, “PubChem BioAssay data set” (2004)
